According to the METLIN SMRT retention time set (Domingo-Almenara et al. 2019):

Assay: gradient 5% acetonitrile 3 min, to 50% in 2 min, to 85% in 15 min, held 3 min, 100 µL/min
Conditions: column: Zorbax Extend-C18 2.1 x 50 mm; eluents: water / acetonitrile, 0.1% formic acid
Summary of the method: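 Retention times come from adduct peaks that were picked computationally and then checked by hand. The standards, pure and pooled in mixtures of ~100 molecules, were run on a Zorbax Extend-C18 column (2.1 × 50 mm, 1.8 μm) at 100 μL/min with water and acetonitrile, each with 0.1% formic acid. Detection was by quadrupole time-of-flight mass spectrometry in positive and negative ionization mode, with a dead volume of 40 μL and a dwell volume of 900 μL.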

| RP-LC retention time [s] | Compound |
| --- | --- |
| 855 | CC(C)CNC(=O)CCc1nc2ccccc2n(CC(=O)NCCc2ccc(Cl)cc2)c1=O |
| 564 | Cc1cc(N2CCN(C)CC2)nc2ccc(NC(=O)Nc3ccccc3)cc12 |
| 620 | CCN1CCN(C(=O)CN2C(=O)C3CCCCN3c3ccc(S(=O)(=O)N(C)C)cc32)CC1 (stereo unspecified) |
| 920 | N#Cc1cccc(-c2nc(-c3cccc(-c4ccn[nH]4)c3)no2)c1 |
| 704 | COc1cc(NC(=O)NCCc2nc3cccnc3n2C2CCCC2)cc(OC)c1 |
| 601 | CCOC(=O)CSc1nnc(CNC(=O)c2cc(OC)c(OC)c(OC)c2)n1C |
| 684 | COc1cc(OC)cc(-c2nc(-c3ccc4c(c3)ncn4CCN3CCCC3)no2)c1 |
| 690 | O=C(NCCn1ncccc1=O)c1ccc(OCc2nc(-c3ccco3)cs2)cc1 |
| 697 | CCOc1ccc(CCNC(=O)c2c(C)oc3nc(C)nc(N4CCCC4)c23)cc1 |
| 900 | O=C(Nc1nc2ccc(F)cc2s1)c1ccccc1Br |
| 850 | Cc1cccc(N(C)C(=O)Cn2c(N3CCc4ccccc4C3)nc(C)cc2=O)c1 |
| 660 | O=S(=O)(Nc1ccc2c(c1)OCCO2)c1ccc2nncn2c1 |
| 594 | O=C(Cn1nc(C(=O)N2CCOCC2)c2ccccc21)N1CCN(c2ccccn2)CC1 |
| 1020 | CC1CCN(S(=O)(=O)c2ccc3nn(Cc4ccc(F)cc4)c(=O)n3c2)CC1 |
| 603 | CCC(C(=O)NCCc1cnc[nH]1)n1c2ccccc2c2cnn(C)c(=O)c21 (stereo unspecified) |
| 878 | CCc1ccc(S(=O)(=O)NCC2CCN(C(=O)Nc3ccccc3OC)CC2)s1 |
| 747 | Cc1ccc(C2=NC3(CCN(C(=O)c4ccco4)CC3)ON2)cc1 |
| 764 | COc1cc2oc(=O)cc(C)c2cc1[N+](=O)[O-] |
| 1170 | Cc1nc2cc(-c3noc(-c4cccc(Br)c4)n3)ccc2n(C)c1=O |
| 756 | Cc1ccc(S(=O)(=O)N2CCC(n3cnnc3C(C)C)CC2)cc1F |
| 752 | Cc1ccc(Nc2nc(C(=O)N3CCN(S(C)(=O)=O)CC3)cs2)c(C)c1 |
| 728 | Cc1ccc(N2CCN(C(=O)c3ccc(CN4CCN(C(C)C)C(=O)C4=O)cc3)CC2)cc1 |
| 1080 | CCSc1nc2ccc(NS(=O)(=O)c3ccc(C)c(C)c3)cc2s1 |

| RP-LC retention time [s] | Compound |
| --- | --- |
| 1020 | Cc1ccc(NS(=O)(=O)c2ccc(-c3c(C)noc3C)cc2)c(Br)c1 |
| 658 | O=C(NCc1n[nH]c(=O)c2ccccc12)C(=O)N1CCN(c2ccccc2)CC1 |
| 640 | CCC(=O)N1c2ccc(S(=O)(=O)CCC(=O)NC3CCN(Cc4ccccc4)CC3)cc2CC1C (stereo unspecified) |
| 864 | O=C(COc1ccc(Cl)cc1)N1CCN(c2cc(-c3cccs3)[nH]n2)CC1 |
| 812 | CCCCNC(=O)Cn1nc2c3cc(-c4ccc(F)cc4)nn3ccn2c1=O |
| 704 | Cc1cccn2cc(C(=O)NCc3ccc(Cl)cc3)nc12 |
| 682 | COc1cccc(-n2cc(C(=O)O)nn2)c1 |
| 789 | O=C(Nc1cnc(N2CCOCC2)nc1)c1cc(F)cc(F)c1 |
| 854 | COc1ccc(C(=O)N2CC(=O)Nc3ccc(F)cc3C2c2ccccc2)c(OC)c1 (stereo unspecified) |
| 927 | Cc1cc(N(C)C)n2nc(-c3ccc(C(C)(C)C)cc3)nc2n1 |
| 648 | O=C(Cn1ccnc1-c1ccnc(N2CCOCC2)c1)Nc1cccc(Br)c1 |
| 786 | Cc1ccc(Cl)c2c1NC(=O)C2(O)CC(=O)c1ccc(F)cc1 (stereo unspecified) |
| 784 | O=C([C@@H]1C[C@H](F)CN1S(=O)(=O)c1ccc(F)cc1)N1CCCCC1 |
| 938 | Fc1ccc(OCc2nnc3sc(COc4ccccc4)nn23)cc1 |
| 962 | CCC(C)CN(CC(=O)N1CCc2sccc2C1COc1ccc(F)cc1)C(=O)COC (stereo unspecified) |
| 681 | CC(=O)Nc1ccc(OCC(=O)NCc2cc(F)ccc2F)nc1 |
| 796 | O=C(CCn1cnc2cc(-c3noc(-c4ccc(Br)o4)n3)ccc21)N1CCCCC1 |
| 923 | Cc1noc(-c2cccc(OC3CN(C(=O)Nc4cccc(F)c4)C3)c2)n1 |
| 764 | CCCN(CC1CCOC1)C(=O)Nc1ccc(C)cc1 (stereo unspecified) |
| 1080 | Cn1ccc2cc(S(=O)(=O)N3CCCC(C(=O)NC4CCCCCCC4)C3)ccc21 (stereo unspecified) |
| 631 | Cc1noc(C2CC3(CCN(C(=O)C4(c5ccccc5)CC4)CC3)CN2C)n1 (stereo unspecified) |
| 881 | COc1ccc(NC(=O)c2sc(-c3cn(C)c4ncccc34)nc2C)c(C)c1 |
| 587 | c1cc2c(cc1OCc1cn(CC3CCCNC3)nn1)CCC2 (stereo unspecified) |

| RP-LC retention time [s] | Compound |
| --- | --- |
| 903 | CC(=O)NCc1ccc(-c2noc(/C=C/c3cccc(Cl)c3)n2)s1 |
| 710 | c1ccc2c(c1)cnc1ccccc12 |
| 1080 | COC(=O)C1=C(C)N(C2CCCC2)C(=O)C1(NC(=O)CCc1ccccc1)C(F)(F)F (stereo unspecified) |
| 1170 | CCOC(=O)C1CCCN(S(=O)(=O)c2cc(-c3nc(C)c(C)s3)sc2C)C1 (stereo unspecified) |
| 838 | Cc1oc2ncn(CC(=O)N3CCCc4ccccc43)c(=O)c2c1C |
| 700 | CC(=O)NS(=O)(=O)c1ccc2sc(C)nc2c1 |
| 935 | CCCCC(C)C(=O)NC1CCN(C2=NS(=O)(=O)C(c3ccc(C)cc3)=C2C)CC1 (stereo unspecified) |
| 853 | COC(=O)c1cc2n(n1)CC(C)(C(=O)NC1CCCCC1)N(c1ccccc1F)C2=O (stereo unspecified) |
| 752 | CN(C)C(=O)c1csc(S(=O)(=O)N2CCC(C(=O)Nc3ccccc3)CC2)c1 |
| 755 | Cc1ccc(C(=O)CC2(O)C(=O)Nc3ccc(C)cc32)cc1 (stereo unspecified) |
| 611 | O=C(Nc1ccc2c(c1)OCCO2)N1CCCCCC1CN1CCOCC1 (stereo unspecified) |
| 795 | COc1ccc(C(=O)N2CCc3ccc(C(=O)NCc4ccco4)cc32)cc1 |
| 890 | Cc1ccc(-n2nc(CO)c(C(=O)NC3CC3)n2)cc1C |
| 1040 | COc1ccc(Cl)cc1NS(=O)(=O)c1c(C)sc(C)c1-c1cc(C)[nH]n1 |
| 582 | CNC(=O)[C@@H]1CN(C(=O)c2cscn2)C[C@H]1c1nc(COC)no1 |
| 938 | Cn1cc2c3c(cccc31)CN(C(=O)c1cc(F)ccc1Cl)CC2 |
| 606 | CCc1cccc(NC(=O)N2CCc3nc[nH]c3C2)c1 |
| 602 | CCOc1ccc(NC(=O)c2cnc(N3CCN(C)CC3)nc2N)cc1 |
| 651 | COC(=O)c1cnc(N2CCN(c3cc(Cl)ccc3C)CC2)c2ccccc12 |
| 1300 | Brc1ccc(-c2csc(Cc3nc(-c4ccc5c(c4)OCO5)no3)n2)cc1 |
| 813 | Cc1cc(C(=O)NCc2ccc(F)cc2)n(-c2ccccc2)n1 |
| 838 | COc1ccc(-c2nc3cnccn3c2Nc2cccc(C)c2C)cc1OC |
| 825 | C=CCn1c(-c2ccc([N+](=O)[O-])cc2)nc2nc3ccccc3nc21 |

| RP-LC retention time [s] | Compound |
| --- | --- |
| 986 | O=C(Cn1cnc2c(sc3nc(-c4ccccc4)ccc32)c1=O)Nc1ccccc1 |
| 948 | CCOc1ccc(C2c3[nH]c4ccccc4c3CCN2C(=O)c2ccncc2)cc1 (stereo unspecified) |
| 949 | O=C(Nc1nc2c(s1)CCCC2C(=O)N1CCc2ccccc21)c1ccc2c(c1)OCO2 (stereo unspecified) |
| 670 | O=C(CCNc1c(-c2cccc(F)c2)nc2cnccn12)N1CCCC1 |
| 765 | Cc1ccc2ncn(C3CCN(C(=O)Nc4ccc(F)cc4)CC3)c(=O)c2c1 |
| 1030 | O=S(=O)(c1ccc(-c2noc(-c3ccccc3F)n2)cc1)N1CCOCC1 |
| 1240 | Cc1ccc(-c2nnc(Cc3nc(-c4ccc(OC(C)C)cc4)no3)o2)cc1C |
| 826 | COc1ccc(-c2noc(C3CCCN3C(=O)Nc3ccccc3OC)n2)cc1 (stereo unspecified) |
| 698 | CCNC(=O)N1CCCC1c1nc(-c2ccccc2OC)no1 (stereo unspecified) |
| 574 | O=C(C1CCC1)N1CCCC(CN2CCOCC2)CC1 (stereo unspecified) |
| 690 | CC(=O)Nc1ccc2c(c1)CN(C(=O)c1cccc(Cl)c1)C(C(=O)N1CCCC1)C2 (stereo unspecified) |
| 751 | CN(C)C(=O)c1cc2c(s1)CCC(C(=O)NC1CCCCCC1)C2 (stereo unspecified) |
| 1010 | CC(C)c1ccc(-c2csc(Nc3ccc(S(N)(=O)=O)cc3)n2)cc1 |
| 1030 | CCCn1cc(C(=O)Nc2ccc(F)cc2)c(S(=O)(=O)N2CCSCC2)n1 |
| 735 | COc1ccc(C(C)NC(=O)c2c(C)sc3ccn(C)c(=O)c23)cc1 (stereo unspecified) |
| 941 | CN(C)S(=O)(=O)c1cccc(-c2nnc(-c3ccccc3Cl)o2)c1 |
| 595 | COc1ccc(-c2cc(N)n[nH]2)c(OC)c1 |
| 907 | CCc1ccc(CNC(=O)Cn2c(CC)nc3onc(C)c3c2=O)cc1 |
| 678 | O=C(CCC(=O)N1CC2CCCN2c2ccccc21)N1CCN(Cc2ccccc2)CC1 (stereo unspecified) |
| 916 | COc1ccccc1NC(=O)C1CCN(S(C)(=O)=O)c2ccccc2O1 (stereo unspecified) |
| 678 | CCOC(=O)c1sc(NC(=O)CSc2nccn2C)nc1-c1ccccc1 |
| 985 | COc1ccc(OCCn2c(C(F)(F)F)nc3cc4c(cc32)OCCO4)cc1 |
